# What was measured:
# Format in all cases: cell-based, human
# U87MG cells [1] = experiment: TUNEL assay
# Experimental: (§1) U343 (5×10^4), U87MG (5×10^4), C33A (5×10^5), Hep3B (4×10^5) and A549 (5×10^4) cells were plated onto a chamber slide and then infected with adenovirus at an MOI of 0.2-20. Following 24 hr and 48 hr of infection, medium was removed and TUNNEL (terminal deoxynucleotidyl transferase(TdT)-mediated dUTP nick end labeling) assay was carried out according to the manufacturer's instruction of ApopTag kit (Intergen, Purchase, N.Y.). For color development, cells were incubated with peroxidase-conjugated avidin and DAB (diaminobenzidine; DAKO, Carpinteria, Calif.). At the time that color of cells became brown, cells were counterstained with 0.5% methyl green for 10 min and observed under microscope in more than 4 selected fields. The ratio of stained cells to total cells was calculated.
# C33A cells [2] = experiment: TUNEL assay
# Experimental: as §1
# A549 cells [3] = experiment: TUNEL assay
# Experimental: as §1
# U343 cells [4] = experiment: TUNEL assay
# Experimental: as §1
# Hep3B cells [5] = experiment: TUNEL assay
# Experimental: as §1
# U343 cells [6] = experiment: Annexin V-FITC and PI dual staining, flow cytometry; details: FIG. 9b, replication-incompetent adenoviruses
# From the text: In addition, to examine early apoptosis induced by decorin, several human tumor cell lines were infected with each adenovirus as described above. The infected cells were collected and then processed for Annexin V/PI dual staining according to manufacturer's instruction in the ApoAlert V-FITC (fluorescein isothiocyanate) apoptosis detection kit (Clontech, Palo Alto, Calif.), followed by flow cytometric analysis.
# U87MG cells [7] = experiment: Flow cytometry after PI staining, subG1 cell population
# Experimental: (§2) To examine apoptosis induced by decorin, human tumor cell lines, U343, U87MG, C33A, Hep3B and A549 were introduced to 25T culture flasks and 24 hr later, were infected with each adenovirus at MOIs of 0.5-50. […] After 48 hr, 72 hr and 96 hr of infection, the infected cells were collected and fixed in 70% ethanol at 4° C. over 24 hr. Following the fixation, the cells were incubated at 4° C. with a mixture of PI (propidium iodide, 50 μg/ml) and RNase (ribonuclease) for 15 min and the FACS analysis was then performed.
# C33A cells [8] = experiment: as above
# Experimental: as §2
# A549 cells [9] = experiment: as above
# Experimental: as §2
# U343 cells [10] = experiment: as above
# Experimental: as §2
# Hep3B cells [11] = experiment: as above
# Experimental: as §2
# [12] = Table 3 lower part, replication-incompetent adenoviruses
# [13] = Table 3 upper part, oncolytic adenoviruses
# [14] = Table 1, oncolytic adenoviruses, 48-96 hr post-infection
# [15] = Table 2, replication-incompetent adenoviruses
smiles,measurement,setting,value
"CCc1c2c(nc3ccc(OC(=O)N4CCC(N5CCCCC5)CC4)cc13)-c1cc3c(c(=O)n1C2)COC(=O)[C@]3(O)CC [CPT, camptothecin-11]",Proportion of apoptotic cells (%),U87MG cells [1]; [12],40.00 ± 13.17%
same,Proportion of apoptotic cells (%),U87MG cells [1]; [13],83.0 ± 29.29%
same,Proportion of apoptotic cells (%),C33A cells [2]; [12],70.51 ± 15.90%
same,Proportion of apoptotic cells (%),C33A cells [2]; [13],60.1 ± 25.91%
same,Proportion of apoptotic cells (%),A549 cells [3]; [12],69.80 ± 8.38%
same,Proportion of apoptotic cells (%),A549 cells [3]; [13],37.5 ± 5.35%
same,Proportion of apoptotic cells (%),U343 cells [4]; [12],74.67 ± 12.38%
same,Proportion of apoptotic cells (%),U343 cells [4]; [13],53.5 ± 7.45%
same,Proportion of apoptotic cells (%),Hep3B cells [5]; [12],75.86 ± 3.11%
same,Proportion of apoptotic cells (%),Hep3B cells [5]; [13],71.2 ± 15.73%
same,apoptotic rate (Annexin V-FITC+/PI−),U343 cells [6],19.41%
same,subG1 cell population (%),U87MG cells [7]; [14],14.78%
same,subG1 cell population (%),U87MG cells [7]; [15],12.51%
same,subG1 cell population (%),C33A cells [8]; [14],26.44%
same,subG1 cell population (%),C33A cells [8]; [15],68.20%
same,subG1 cell population (%),A549 cells [9]; [14],17.96%
same,subG1 cell population (%),A549 cells [9]; [15],21.59%
same,subG1 cell population (%),U343 cells [10]; [14],59.86%
same,subG1 cell population (%),U343 cells [10]; [15],29.02%
same,subG1 cell population (%),Hep3B cells [11]; [14],5.99%
same,subG1 cell population (%),Hep3B cells [11]; [15],16.60%

# — patent US9468690B2, “Decorin gene delivery system and cancer treatment” ([…] CO., LTD., priority 2005, dated 2016)
